Read-outs that look alike come from different tables or passages of the source.
What was measured:
VAChT [1] = molecular target: T1, VAChT (Rattus norvegicus, UniProt Q62666); experiment: biochemical
T1 sequence (Q62666 1-530): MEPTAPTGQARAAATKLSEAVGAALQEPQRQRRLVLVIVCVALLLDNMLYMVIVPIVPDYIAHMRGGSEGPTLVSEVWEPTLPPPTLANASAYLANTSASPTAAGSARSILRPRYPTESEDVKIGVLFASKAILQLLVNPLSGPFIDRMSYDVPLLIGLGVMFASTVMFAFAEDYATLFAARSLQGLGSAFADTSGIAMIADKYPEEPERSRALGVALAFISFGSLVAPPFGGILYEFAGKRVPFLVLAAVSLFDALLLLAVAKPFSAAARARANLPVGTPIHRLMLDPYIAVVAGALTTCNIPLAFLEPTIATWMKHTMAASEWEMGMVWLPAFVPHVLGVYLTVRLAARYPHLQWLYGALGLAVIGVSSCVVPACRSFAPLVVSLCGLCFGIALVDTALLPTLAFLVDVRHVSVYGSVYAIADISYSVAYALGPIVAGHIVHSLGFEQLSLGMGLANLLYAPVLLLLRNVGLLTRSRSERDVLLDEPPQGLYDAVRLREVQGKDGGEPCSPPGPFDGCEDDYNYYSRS
Description: (§1) The affinity of (−)-o-MeVES for VAChT and sigma receptors (σ-1, σ-2) was examined by in vitro drug inhibition experiments.
(§2) First, the brain and liver were extirpated from a rat, a 0.32 M sucrose solution in an amount by weight 10 times the weight of each tissue was added, and each tissue was ground using a Teflon homogenizer. Next, the ground tissue solution was centrifuged at 1000 g for 10 minutes, and the precipitated fraction was removed. Furthermore, the supernatant was centrifuged at 55000 g for 60 minutes, and the precipitated tissue was added to, and suspended in, 50 mM Tris-HCl buffer solution/0.32 M sucrose solution (pH 7.8).
For each test compound, samples at 10 different concentrations (concentrations set at 10 levels in the range of 10^−5 M to 10^−10 M) were prepared.
For each sample, the RI (100 μl), sample (50 μl), 50 mM Tris-HCl buffer solution (pH 7.8) (100 μl), 2 μM DTG solution (50 μl) (200 nM as the final concentration), and, finally, the prepared rat cerebral membrane (500-900 μg (protein weight)/200 μl) was added to a test tube, and they were reacted at 37° C. for 60 minutes. The test tube was cooled with ice to stop the reaction, and the rat cerebral membrane was immediately adsorbed to a glass filter using a cell harvester. After the glass filter was washed with 50 mM Tris-HCl buffer solution (pH 7.8) (5 ml) three times, the rat cerebral membrane, together with the glass filter, was placed in a liquid scintillation vial, and a liquid scintillator was added, after which radioactivity was measured using a liquid scintillation counter.
(§3) Ki=IC50/(1+C/Kd)(nM) formula

VAChT in the brain = molecular target: T2, VAChT in the brain (Rattus norvegicus, UniProt Q62666); experiment: Inhibitory effects of non-radioactive ligands on cerebral distribution of (−)-[^11C]-o-methylvesamicol in rats; format: in vivo; conditions: 30 minutes; for local accumulation of (−)-[^11C]-o-MeVES in the brain, effect of co-administered non-radioactive ligand: 500 nmol per kg i.v.; for Radioactivity level (% ID/g) Blood / Radioactivity level (% ID/g) Brain (other than above) / Radioactivity level (% ID/g) Cerebellum / Radioactivity level (% ID/g) Cerebral cortex / Radioactivity level (% ID/g) Hippocampus / Radioactivity level (% ID/g) Medulla oblongata / Radioactivity level (% ID/g) Striate body / Radioactivity level (% ID/g) Brain (whole): tracer (−)-[^11C]-o-MeVES 20 MBq i.v. together with ligand 500 nmol per kg, mean ± S.D. n = 4-6
T2 construct: from tissue; host or cells: brain of living rats, tissue counted or sectioned after killing
T2 sequence (Q62666 1-530): T1 sequence (Q62666 1-530)
Description: To the caudal vein of each rat, an injection (0.1 ml) containing 20 MBq of (−)-[^11C]-o-MeVES and 0.1 ml (equivalent to 500 nmol per kg body weight) of a DMSO solution containing each of the above-described non-radioactive ligands were administered together. Thirty minutes after the administration, the rats were killed by cervical dislocation, and blood was drawn from the heart using a syringe, after which the brain was extirpated from each rat. The extirpated brain was divided into the cerebral cortex, hippocampus, striate body, cerebellum, medulla oblongata, and other parts, and the radioactivity in each tissue was measured using a gamma counter. Each tissue was also weighed.
For control, an injection (0.1 ml) containing 20 MBq of (−)-[^11C]-o-MeVES and a ligand-free DMSO solution (0.1 ml) were administered to the caudal vein of each rat, and measurements were taken in the same manner as described above.

VAChT [2] = molecular target: T1, VAChT; design: the brain and liver were extirpated from a rat; from tissue; host or cells: rat brain (cerebral membranes); conditions: in vitro, rat brain; mean±standard deviation; Life Sciences 71 (2002) 1591-1598; read-out: Ki value, affinity for VAChT; cited from earlier work
δ-2 receptor = molecular target: T3, δ-2 receptor (Rattus norvegicus, UniProt Q5U3Y7); conditions: in vitro, rat brain; mean±standard deviation; Life Sciences 71 (2002) 1591-1598; read-out: Ki value, affinity for δ-2 receptor; cited from earlier work
T3 construct: as a result of in vitro experiments using the rat brain
T3 sequence (Q5U3Y7 1-176): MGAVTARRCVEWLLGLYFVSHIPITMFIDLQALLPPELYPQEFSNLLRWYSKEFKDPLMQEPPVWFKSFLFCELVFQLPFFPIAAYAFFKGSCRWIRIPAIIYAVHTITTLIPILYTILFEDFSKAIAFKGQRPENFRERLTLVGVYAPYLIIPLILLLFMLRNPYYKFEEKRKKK

δ-1 receptor = molecular target: T4, δ-1 receptor (Rattus norvegicus, UniProt Q9R0C9); conditions: in vitro, rat brain; mean±standard deviation; Life Sciences 71 (2002) 1591-1598; read-out: Ki value, affinity for δ-1 receptor; cited from earlier work
T4 construct: as a result of in vitro experiments using the rat brain; host or cells: rat brain

σ-1 receptor = σ-1 receptor (Rattus norvegicus, UniProt Q9R0C9); experiment: biochemical
Description: as §1, §2, §3

σ-2 receptor = molecular target: T5, σ-2 receptor (Rattus norvegicus, UniProt Q5U3Y7); experiment: biochemical; format: binding
T5 construct: except that rat liver membranes (300-600 μg (protein weight)/200 μl) were used; from tissue; host or cells: rat liver membranes
T5 sequence (Q5U3Y7 1-176): T3 sequence (Q5U3Y7 1-176)
Description: as §1, §2
3 nM [^3H]DTG ([^3H]-1,3-di-o-tolylguanidine) was used as the radioisotope (RI) for the σ-2 receptor. […] A test was performed in the same procedures as those for the test of affinity for the […] except that rat liver membranes (300-600 μg (protein weight)/200 μl) were used.
as §3

[3] = compared with (−)-o-iodovesamicol

σ-1 receptor, sequence (Q9R0C9 whole entry): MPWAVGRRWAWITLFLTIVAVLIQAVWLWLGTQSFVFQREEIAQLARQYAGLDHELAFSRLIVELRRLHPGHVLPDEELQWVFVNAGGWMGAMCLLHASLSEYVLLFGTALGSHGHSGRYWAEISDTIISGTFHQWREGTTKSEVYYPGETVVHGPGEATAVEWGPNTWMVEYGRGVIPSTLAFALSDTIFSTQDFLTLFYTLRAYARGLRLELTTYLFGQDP
T4 sequence (Q9R0C9 whole entry): as above

SMILES	IC50 (VAChT [1]) [nM]	Ki (VAChT [1]) [nM]	local accumulation of (−)-[^11C]-o-MeVES in the brain, effect of co-administered non-radioactive ligand (VAChT in the brain)	Radioactivity level (% ID/g) Blood (VAChT in the brain) [% ID/g]	Radioactivity level (% ID/g) Brain (other than above) (VAChT in the brain) [% ID/g]	Radioactivity level (% ID/g) Cerebellum (VAChT in the brain) [% ID/g]	Radioactivity level (% ID/g) Cerebral cortex (VAChT in the brain) [% ID/g]	Radioactivity level (% ID/g) Hippocampus (VAChT in the brain) [% ID/g]	Radioactivity level (% ID/g) Medulla oblongata (VAChT in the brain) [% ID/g]	Radioactivity level (% ID/g) Striate body (VAChT in the brain) [% ID/g]	Radioactivity level (% ID/g) Brain (whole) (VAChT in the brain) [% ID/g]	IC50 (σ-2 receptor) [nM]	Ki (σ-2 receptor) [nM]	further results
CC(C)=CCN1CCC2(C)c3cc(O)ccc3CC1C2C (single isomer, unassigned; (+)) [(+)-Pentazocine, (+)-pentazocine]	830	315 ± 121	not inhibited	0.12 ± 0.01	2.52 ± 0.43	2.07 ± 0.31	2.72 ± 0.40	2.59 ± 0.44	2.83 ± 0.45	2.39 ± 0.40	2.52 ± 0.40	–	–	–
OC1CCCCC1N1CCC(c2ccccc2I)CC1 (single isomer, unassigned; (-)) [(−)-o-iodovesamicol]	–	–	–	–	–	–	–	–	–	–	–	–	–	Ki (VAChT [2]): 15 ± 2.9 nM; Ki (δ-2 receptor): 554 ± 137 nM; Ki (δ-1 receptor): 62.2 ± 12 nM
Cc1ccccc1C1CCN(C2CCCCC2O)CC1 (single isomer, unassigned; (-)) [(−)-o-MeVES, (−)-2-(4-(2-methylphenyl)piperidino)cyclohexanol]	16	6.7 ± 0.4	inhibited	0.14 ± 0.02	0.63 ± 0.10	0.60 ± 0.07	0.70 ± 0.10	0.71 ± 0.08	0.74 ± 0.09	0.71 ± 0.10	0.68 ± 0.10	320	266 ± 28	melting point: 116 to 118 °C; IC50 (σ-1 receptor): 38 nM; Ki (σ-1 receptor): 33.7 ± 5.9 nM; 6-1 receptor/VAChT ratio of the Ki values (VAChT [1]; [3]): higher; 6-2 receptor/VAChT ratio of the Ki values (VAChT [1]; [3]): higher
COc1ccc(CCN2CCN(CCCc3ccccc3)CC2)cc1OC [SA4503, 1-(3,4-dimethoxyphenethyl)-4-(3-phenyl-propyl)piperazine]	120	50.2 ± 7.2	inhibited	0.14 ± 0.02	0.55 ± 0.05	0.52 ± 0.07	0.62 ± 0.08	0.84 ± 0.18	0.66 ± 0.08	0.61 ± 0.07	0.59 ± 0.07	280	242 ± 17	–
OC1CCCCC1N1CCC(c2ccccc2)CC1 (single isomer, unassigned; (-)) [(−)-Vesamicol, 2-(4-Phenylpiperidino)-cyclohexanol]	13	4.4 ± 0.6	inhibited	0.13 ± 0.01	0.69 ± 0.04	0.62 ± 0.03	0.71 ± 0.04	0.66 ± 0.05	0.80 ± 0.08	0.72 ± 0.03	0.70 ± 0.04	420	346 ± 37	–

Source: US20090163461A1, “Ligand for Vesicular Acetylcholine Transporter” (priority 2005, published 2009)
